{
  "source": "patent USRE35145E",
  "about": "“Substituted phthalocyanine” (Zeneca Limited, priority 1987, dated 1996)",
  "key": {"[1]": {"assay": "Near infra-red absorption spectrum in solution (WLmax, ECmax, band width)", "assay_type": "physicochemical", "from_the_text": "The region from 750 to 1100 nm is of particular importance for optical character recognition (OCR) and for energy conversion, e.g. from laser radiation to heat. Many OCR systems use solid state semi-conductor lasers, which generally emit at 780-830 nm, as the radiation source and photodiode detectors based on silicon which have peak sensitivity around 900 rim.\nWLmax is the wavelength of the absorption maximum; and\nECmax is the extinction coefficient at the absorption maximum."}, "[2]": {"assay": "Solubility in water, MEK, ethanol, glycols", "assay_type": "physicochemical", "settings": "25° C., percentages by weight", "from_the_text": "Various applications of the present compounds, especially for printing inks, require products which are soluble in solvents of differing polarities. The major requirements are for water-soluble products (water and water-alcohol or water-glycol mixtures), alcohol (typically methanol, ethanol and propanol) and glycol (typically ethylene glycol and diethylene glycol) soluble products and ketone (typically MEK) soluble products."}},
  "data": [
    {"substance": "hepta(4-methylphenylthio)-tetra(1-amino-2-thio-phen-1,2-ylene)-CuPc [OTCPC]", "values": [
      {"measurement": "WLmax (wavelength of the absorption maximum)", "setting": "[1]; in CH3 Cl", "result": 890, "unit": "nm"},
      {"measurement": "ECmax (extinction coefficient at the absorption maximum)", "setting": "[1]; in MEK", "result": "46,000"},
      {"measurement": "Solubility", "setting": "[2]", "result": 10, "unit": "%"}
    ]}
  ]
}
